Where “and” joins values, the source holds several entries; their conditions need not be identical. Equal values may be shown once.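 48-hour exposure; five concentrations; linearly interpolated endpoints. GI50 is the concentration that inhibits growth by half. TGI marks complete inhibition of growth.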

Among the test systems are EKVX NSCLC; MALME-3M melanoma; MOLT-4 leukemia; NCI-H23 lung; OVCAR-5 ovarian; RPMI-8226 leukemia; SF-268 CNS; SF-295 CNS; TK-10 renal; OVCAR-4 ovarian.
Common to all, as to test: NCI tumour cell line growth inhibition, 48 h

In the case of `COCCOCOC(C)(C)[C@H](CCO)O[Si](c1ccccc1)(c1ccccc1)C(C)(C)C`, the TGI in the experiment on EKVX NSCLC worked out at 29.5 µM; with MALME-3M melanoma, 30.5 µM; in the experiment with MOLT-4 leukemia, 22.9 µM; in the experiment on NCI-H23 lung, 35.9 µM; in the experiment on OVCAR-5 ovarian, 27.5 µM; in the experiment on RPMI-8226 leukemia, 35.5 µM. Also, the values for the TGI in the experiment on SF-268 CNS, in the experiment with SF-295 CNS and with TK-10 renal were 22.5 µM, 18.6 µM and 23 µM, respectively.
As to `C/C(=N\NC(=S)Nc1ccc([N+](=O)[O-])cc1)c1nc2ncccc2[nH]1`, the TGI in the experiment with EKVX NSCLC is 3.2 µM; with MALME-3M melanoma it was 18.5 µM; in the experiment with MOLT-4 leukemia, 13.3 µM; in the experiment with NCI-H23 lung, 4.14 µM; in the experiment with OVCAR-4 ovarian it was 4.21 µM; in the experiment with OVCAR-5 ovarian it was 4.14 µM. For the same compound, the TGI in the experiment with RPMI-8226 leukemia was 9.3 µM; in the experiment on SF-268 CNS it was more than 100 µM; in the experiment on SF-295 CNS, 10.2 µM; in the experiment with TK-10 renal, 4.56 µM.
Turning to `c1ccc2cc3c(cc2c1)OP1(Oc2cccc4cccnc24)(O3)Oc2cc3ccccc3cc2O1`, the TGI with EKVX NSCLC was more than 57.3 µM; in the experiment on MALME-3M melanoma, more than 76.8 µM; with NCI-H23 lung, 16.9 µM; in the experiment with OVCAR-4 ovarian it was 11.8 µM; with OVCAR-5 ovarian it was 45.6 µM; in the experiment with SF-268 CNS it was more than 100 µM. This compound also yielded a TGI in the experiment on SF-295 CNS of more than 58.9 µM.
Turning to `O=C1c2ccccc2C(=O)c2c1cc1c(c2[N+](=O)[O-])OCO1`, the GI50 in the experiment on EKVX NSCLC is 2.92 µM; in the experiment with MALME-3M melanoma, 2.81 µM; with MOLT-4 leukemia, 0.794 µM; in the experiment on NCI-H23 lung it was 2.4 µM; in the experiment on OVCAR-4 ovarian, 1.2 µM; in the experiment on OVCAR-5 ovarian it was 2.39 µM. For the same compound, the GI50 in the experiment with RPMI-8226 leukemia was 0.267 µM; with SF-268 CNS it was 1.46 µM; in the experiment on SF-295 CNS, 2.27 µM; in the experiment with TK-10 renal, 2.38 µM. Besides, the TGI with EKVX NSCLC is 9.8 µM; in the experiment on MALME-3M melanoma, 8.9 µM; with MOLT-4 leukemia it was more than 100 µM; in the experiment with NCI-H23 lung it was 8.29 µM; in the experiment on OVCAR-4 ovarian it was 4.85 µM; in the experiment with OVCAR-5 ovarian, 8.74 µM. The TGI with RPMI-8226 leukemia worked out at 0.916 µM; with SF-268 CNS it was 7.73 µM; in the experiment on SF-295 CNS, 8.82 µM; in the experiment on TK-10 renal it was 6.39 µM.
Turning to `C/C(N=NS(=O)(=O)c1ccc(C)cc1)=C1\C=CC=CN1O`, the TGI in the experiment on EKVX NSCLC, in the experiment with MOLT-4 leukemia, in the experiment with NCI-H23 lung, with OVCAR-4 ovarian, in the experiment on OVCAR-5 ovarian and in the experiment on RPMI-8226 leukemia was more than 100 µM in each case. The TGI in the experiment with SF-268 CNS, in the experiment with SF-295 CNS and with TK-10 renal was more than 100 µM each time.
In the case of `O=C(O)CCCc1ccccc1`, the GI50 with EKVX NSCLC was 294 µM and > 1000 µM; with MOLT-4 leukemia, more than 1000 µM; in the experiment with NCI-H23 lung, 377 µM and > 1000 µM; with OVCAR-5 ovarian, 456 µM and > 1000 µM; in the experiment with RPMI-8226 leukemia, 19.5 µM; in the experiment on SF-295 CNS it was 370 µM and > 1000 µM. In addition, the GI50 with TK-10 renal is 285 µM and > 1000 µM. Besides, the TGI was more than 1000 µM with EKVX NSCLC; 121 µM and > 1000 µM in the experiment on MALME-3M melanoma; 394 µM and > 1000 µM with MOLT-4 leukemia; more than 1000 µM in the experiment on NCI-H23 lung; 184 µM and > 1000 µM in the experiment on OVCAR-4 ovarian; more than 1000 µM with OVCAR-5 ovarian. Also, the TGI was 79.2 µM with RPMI-8226 leukemia; 348 µM and > 1000 µM in the experiment on SF-268 CNS; 738 µM and > 1000 µM with SF-295 CNS; more than 1000 µM in the experiment on TK-10 renal.
As for `Nc1n[nH]c(CCCCCCCc2nc(N)n[nH]2)n1`, the TGI with EKVX NSCLC, in the experiment with MALME-3M melanoma, in the experiment on MOLT-4 leukemia, with NCI-H23 lung, in the experiment on OVCAR-4 ovarian and in the experiment on OVCAR-5 ovarian was more than 100 µM in each case. Besides, the TGI in the experiment with RPMI-8226 leukemia, in the experiment on SF-268 CNS and in the experiment on TK-10 renal was more than 100 µM each time.
In the case of `OC1COC(OCc2ccccc2)C(O)C1O` (stereo not drawn), the TGI with EKVX NSCLC, in the experiment on MALME-3M melanoma, in the experiment on MOLT-4 leukemia, in the experiment on NCI-H23 lung, with OVCAR-4 ovarian and in the experiment with OVCAR-5 ovarian was more than 100 µM throughout. Further, the TGI in the experiment on RPMI-8226 leukemia, in the experiment with SF-268 CNS, with SF-295 CNS and in the experiment with TK-10 renal was more than 100 µM each time.
Turning to `O=C(O)CC12CC3CC(CC(O)(C3)C1)C2`, the TGI was more than 100 µM with EKVX NSCLC; 77.1 µM with MALME-3M melanoma; more than 100 µM in the experiment with NCI-H23 lung; more than 100 µM in the experiment on OVCAR-4 ovarian; more than 100 µM in the experiment with OVCAR-5 ovarian; more than 100 µM in the experiment with RPMI-8226 leukemia. The TGI in the experiment with SF-268 CNS is 82.7 µM; in the experiment with SF-295 CNS, more than 100 µM; with TK-10 renal, more than 100 µM.
Take `C=CCNC(=O)CN(CC(=O)OC)C1CCCCC1N(CC(=O)OC)CC(=O)OC` (stereo not drawn): the TGI in the experiment with EKVX NSCLC, with MALME-3M melanoma, in the experiment with MOLT-4 leukemia, with NCI-H23 lung, in the experiment with OVCAR-5 ovarian and in the experiment on RPMI-8226 leukemia was more than 100 µM throughout. The TGI in the experiment with SF-268 CNS, in the experiment on SF-295 CNS and in the experiment on TK-10 renal was more than 100 µM each time.
For the compound `CC(C)=CCC/C(C)=C/CCC1(C)C=Cc2c(c3ccccc3oc2=O)O1` (stereo not drawn), the TGI is 33.9 µM in the experiment with EKVX NSCLC; 43.7 µM with MALME-3M melanoma; more than 72.7 µM in the experiment with MOLT-4 leukemia; 28.9 µM in the experiment with NCI-H23 lung; 28.4 µM in the experiment on OVCAR-4 ovarian; 32.6 µM in the experiment on OVCAR-5 ovarian. The TGI in the experiment on RPMI-8226 leukemia was 63.8 µM; with SF-268 CNS, 40.8 µM; in the experiment on SF-295 CNS, 33.9 µM.
For `COc1cc(C(=O)C2CC3(CCC2(O)c2cc(OC)c(OC)c(OC)c2)CC(=O)Nc2ccccc2C3=O)cc(OC)c1OC` (stereo not drawn), the TGI in the experiment on EKVX NSCLC is more than 100 µM; in the experiment on MALME-3M melanoma, more than 100 µM; in the experiment with MOLT-4 leukemia, more than 100 µM; in the experiment on NCI-H23 lung, more than 100 µM; with OVCAR-4 ovarian it was 57.5 µM; in the experiment on OVCAR-5 ovarian, more than 100 µM. The TGI in the experiment with SF-268 CNS, with SF-295 CNS and with TK-10 renal was more than 100 µM in each case.
In the case of `Cc1cn(C2CC(O)C(Cn3nncc3Cn3ncc(=O)[nH]c3=O)O2)c(=O)[nH]c1=O` (stereo not drawn), the TGI with EKVX NSCLC, in the experiment on MALME-3M melanoma, in the experiment on MOLT-4 leukemia, in the experiment on NCI-H23 lung, in the experiment on OVCAR-4 ovarian and in the experiment on OVCAR-5 ovarian was more than 100 µM throughout. Besides, the TGI in the experiment with RPMI-8226 leukemia, with SF-268 CNS, in the experiment with SF-295 CNS and in the experiment with TK-10 renal was more than 100 µM each time.
As for `COc1cc(/C=C/C2=C(C#N)C(=O)OC2(C)C)ccc1O`, the TGI in the experiment with EKVX NSCLC was more than 100 µM; with MALME-3M melanoma, more than 100 µM; with MOLT-4 leukemia, more than 100 µM; in the experiment on NCI-H23 lung, more than 100 µM; in the experiment on OVCAR-5 ovarian, more than 100 µM; with RPMI-8226 leukemia it was 49.6 µM. The TGI in the experiment on SF-268 CNS, in the experiment with SF-295 CNS and in the experiment with TK-10 renal was more than 100 µM throughout.
In the case of `Cc1cccc(CNc2ncnc3[nH]ncc23)c1`, the TGI with EKVX NSCLC, in the experiment on MALME-3M melanoma, with MOLT-4 leukemia, in the experiment with NCI-H23 lung, in the experiment with OVCAR-4 ovarian and with OVCAR-5 ovarian was more than 100 µM each time. In addition, the TGI with RPMI-8226 leukemia, in the experiment with SF-268 CNS, in the experiment on SF-295 CNS and with TK-10 renal was more than 100 µM in each case.
Regarding `CC(C)=CC(=O)OC1C2C(C)=CC(O)C(O)C2(C)C2C3(O)OCC24C(CC(=O)OC14)C(C)C3O` (stereo not drawn), the TGI in the experiment on EKVX NSCLC was found to be 0.642 µM; in the experiment with MALME-3M melanoma it was 0.0844 µM; with MOLT-4 leukemia, 1.31 µM; in the experiment on NCI-H23 lung, 0.387 µM; in the experiment with OVCAR-4 ovarian, 0.749 µM; in the experiment on OVCAR-5 ovarian, 3.79 µM. For the same compound, the TGI in the experiment on RPMI-8226 leukemia amounted to 0.131 µM; in the experiment on SF-268 CNS, 0.733 µM; in the experiment with SF-295 CNS, 0.81 µM.
Regarding `O=C(O)C12CC3CC(C1)C2C=C3P(=O)(O)O` (stereo not drawn), the TGI in the experiment on EKVX NSCLC, in the experiment on MALME-3M melanoma, in the experiment with MOLT-4 leukemia, in the experiment with NCI-H23 lung, in the experiment with OVCAR-4 ovarian and with OVCAR-5 ovarian was more than 100 µM throughout. Also, the TGI with RPMI-8226 leukemia, with SF-268 CNS, in the experiment on SF-295 CNS and in the experiment on TK-10 renal was more than 100 µM each time.
Regarding `CC1SC(c2ccc(Cl)cc2)N(CCc2cccs2)C1=O` (stereo not drawn), the GI50 in the experiment with EKVX NSCLC was 1.3 µM; in the experiment on MALME-3M melanoma, 2.12 µM; with MOLT-4 leukemia, 2.46 µM; in the experiment on NCI-H23 lung, 1.48 µM; with OVCAR-4 ovarian it was 1.19 µM; in the experiment with OVCAR-5 ovarian, 1.85 µM. The GI50 was 1.33 µM with RPMI-8226 leukemia, 1.55 µM in the experiment on SF-268 CNS, 1.23 µM in the experiment with SF-295 CNS and 1.68 µM with TK-10 renal. Moreover, the TGI with EKVX NSCLC stood at 4.47 µM; with MALME-3M melanoma it was 4.05 µM; with MOLT-4 leukemia, 9.11 µM; in the experiment with NCI-H23 lung it was 3.85 µM; in the experiment with OVCAR-4 ovarian it was 2.44 µM; in the experiment on OVCAR-5 ovarian it was 4.56 µM. Besides, the TGI in the experiment with RPMI-8226 leukemia came to 4.55 µM; in the experiment with SF-268 CNS, 3.49 µM; in the experiment with SF-295 CNS, 2.53 µM; in the experiment on TK-10 renal it was 3.4 µM.
On to `Cc1c(C2=NN=C(N=Nc3c(O)cccc3O)/C2=C/c2ccccc2)c(=O)n(-c2ccccc2)n1C`, for which the TGI in the experiment with EKVX NSCLC, with MALME-3M melanoma, in the experiment with MOLT-4 leukemia, in the experiment on NCI-H23 lung, in the experiment on OVCAR-4 ovarian and in the experiment on OVCAR-5 ovarian was more than 100 µM each time. Moreover, the TGI in the experiment on RPMI-8226 leukemia, in the experiment on SF-268 CNS and in the experiment on SF-295 CNS was more than 100 µM each time.
As to `C=C1C2CCC3(CCC4C5(C)CCCC4(C=[N+](CCO)C5)C3C2)C1O` (stereo not drawn), the TGI in the experiment with EKVX NSCLC, in the experiment with MALME-3M melanoma, in the experiment with NCI-H23 lung, in the experiment on OVCAR-4 ovarian, in the experiment on OVCAR-5 ovarian and with RPMI-8226 leukemia was more than 100 µM each time. Moreover, the TGI in the experiment with SF-268 CNS, in the experiment with SF-295 CNS and with TK-10 renal was more than 100 µM each time.

Source of the values: PubChem BioAssay (NCI).
